Measured values published in patent publication EP0057664A2, “Clavam derivatives” (CIBA-GEIGY AG, priority 1981, dated 1982).
≈ marks a conversion by molar mass, not a printed value. Entries after “also recorded” stand apart in the source; their conditions may differ. Read-outs that look alike come from different tables or passages of the source.

What was measured:
Mucor miehei = assay: Plate agar diffusion test, minimal inhibitory concentration against Mucor miehei; format: cell-based; conditions: Rhizomucor miehei
Description: Die antibakterielle Wirkung kommt sowohl gegen gram-positive wie gram-negative Bakterien zur Geltung, wie z.B. im Platten-Agardiffusionstest in vitro [10 µl/Testrondelle (6 mm ø)] gezeigt werden kann, wo sie bei verschiedenen pathogenen Keimen eine minimale Hemmkonzentration im Bereiche von 1-200 µg/ml zeigen. Von den gegenüber den neuen Verbindungen empfindlichen gram-positiven Bakterien seien z.B. die folgenden genannt: Bacillus cereus, Bacillus subtilis, Clostridium pasteurianum, Corynebacterium rathayi, von den gram-negativen folgende: Agrobacterium tumefaciens, Erwinia amylovorum, Escherichia coli K 12 wild type, Klebsiella aerogenes, Serratia marcescens 13880, Serratia marcescens 30122.
Die antifungische Wirkung tritt praktisch gegenüber den meisten Pilzen auf. So weist das Antibiotikum Tü 1718 und insbesondere die Verbindungen der Formel (IV) im oben genannten Agardiffusionstest eine minimale Hemmkonzentration im Bereiche von ca. 0,1-200 µg/ml gegenüber sehr vielen pathogenen und nicht pathogenen Pilzen, z.B. gegen Pythium debarianum, Mucor hiemalis+, Mucor hiemalis-, Mucor miehei, Trichophyton mentagrophytes, Botrytis cinerea 157, Aspergillus fumigatus, und mehrere andere. So besitzen z.B. die nachstehend aufgeführten spezifischen Verbindungen die folgenden minimalen Hemmkonzentrationen gegenüber Mucor miehei: • Komponente A1 von Antibiotikum Tü 1718, d.h. (2S,5S)-2-(2-Hydroxyäthyl)-clavam = 10 ug/ml
(§1) Bei der […] kann der Plattendiffusionstest dienen, wobei vorzugsweise folgende Testkeime verwendet werden: Clostridium pasteurianum, Escherichia coli und Mucor miehei. Die minimale Hemmkonzentration der Hauptkomponente des Antibiotikums in µg/m1 gegenüber den eben genannten Mikroorganismen ist wie folgt: • Clostridium pasteurianum 50

Clostridium pasteurianum = assay: Plate diffusion test, minimal inhibitory concentration against Clostridium pasteurianum; format: cell-based; conditions: Plattendiffusionstest, read-out: minimale Hemmkonzentration
Source text: as §1

[1] = test system: Tumorzellen der Zellinie NS-1; assay: Tumour-inhibiting effect on tumour cells of cell line NS-1; format: cell-based, Maus; conditions: Zellinie NS-1, compared with Actinomycin C
Source text: Das neue Antibiotikum, seine Extrakte und die neuen Verbindungen der Formel (IV) besitzen zudem auch eine tumorhemmende Wirkung, wie in Versuchen an Tumorzellen der Zellinie NS-1, einer Variante der Zelline P 3, die aus Mineralöl-induzierten Plastocytomen der Maus stammen, gezeigt werden kann.

[2] = Solubility in solvents and water; format: physicochemical
Source text: (§2) Als Aufbewahrungsmittel eignet sich Chloroform. […] Es ist somit möglich, die Verbindungen in Form all jener pharmazeutischen Präparate zu verwenden, die Wasser enthalten, wie insbesondere von wässrigen Lösungen bei der parenteralen oder oralen Applikation, oder Cremen oder Salben oder Tinkturen bei der topischen Gabe.
(§3) Als Aufbewahrungsmittel eignet sich Chloroform. […] Bei der Dünnschichtchromatographie z.B. an Kieselgel-Alufolien kann die Substanz z.B. durch folgende Sprühreagenzien sichtbar gemacht werden: Ehrlich's Reagenz, rot; Vanillin/ ^H2S04, lindgrün; Ninhydrin, gelb mit violettem Rand.

[3] = Stability solvent-free and in aqueous solution; format: physicochemical
Source text: as §2, §3

[4] = Agardiffusionstest, read-out: minimale Hemmkonzentration gegenüber Mucor miehei

Compound	MIC (Mucor miehei; [4])	MIC (Mucor miehei; Plattendiffusionstest, Mucor miehei, read-out: minimale Hemmkonzentration)	MIC (Clostridium pasteurianum)	tumorhemmende Wirkung [1]	Löslichkeit in Chloroform, Aceton, Methanol ([2]; Chloroform, Aceton, Methanol)	Löslichkeit in Wasser ([2]; Wasser)	Stabilität in lösungsmittelfreiem Zustand ([3]; lösungsmittelfrei)	Stabilität in wässerigen Lösungen ([3]; wässerige Lösungen, pH 5-7)
O=C1C[C@@H]2O[C@@H](CCO)CN12 [Komponente A1 von Antibiotikum Tü 1718, (2S,5S)-2-(2-Hydroxyäthyl)-clavam]	10 µg/mL (≈ 63.6 µM)	10 to 20 µg/mL (≈ 63.6 to 127 µM)	50 µg/mL (≈ 318 µM)	ca. die Hälfte der tumorhemmenden Wirkung von Actinomycin C	sehr gut; also recorded: gut löslich	weniger gut löslich; also recorded: mässig löslich	beschränkt stabil	einigermassen gute Stabilität
O=C(COc1ccccc1)OCC[C@H]1CN2C(=O)C[C@@H]2O1 [(2S,5S)-2-(2-Phenoxyacetoxyäthyl)-clavam]	0.1 µg/mL (≈ 0.343 µM)							
